From PubChem BioAssay AID463199 (Broad Institute, 2010)
The source made the active and inactive calls.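 The calls were made as follows: active = AC50, the dose giving half-maximal effect, exceeds a fixed cutoff for a compound that rescues yeast growth under heat; inactive = the rest, inconclusive results apart.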

System: S. cerevisiae Burl-1 ts mutant growth, BacTiter-Glo, 38.5C 24 h
Assay: growth induction of Burl-1 ts yeast mutant, dose response, counter-screen for SUMOylation pathway inhibitor project, whole organism, S. cerevisiae, luminescence (AID 463199)

Q: For `Cc1onc(-c2ccccc2Cl)c1C(=O)N1CCc2ccccc2C1`, which AC50 is on record?
A: > 42 µM (inactive)

Q: How did the AC50 turn out when `CC(C)(C)NC(=O)C(c1cccs1)N(Cc1cccs1)C(=O)c1ccc(CN2CCOCC2)o1` (configuration not stated) was run?
A: > 42 µM (inactive)

Q: Which AC50 does the source give for `COc1ccc(OC)c(CCNC(=O)c2ccc3c(c2)N(Cc2ccc(F)cc2)CCS3)c1` here?
A: > 42 µM (inactive)

Q: For `COc1ccccc1-c1nnc(SCC(=O)NC2CCS(=O)(=O)C2)n1N` (configuration not stated), which AC50 is on record?
A: > 42 µM (inactive)

Q: Which AC50 does the source give for `O=S(=O)(NCc1ccco1)c1ccc2ccccc2c1` here?
A: > 42 µM (inactive)

Q: `COc1cc(/C=C(\NC(=O)c2ccccc2)C(=O)Nc2nccs2)ccc1OC(C)=O` was tested. Which AC50 did it give?
A: > 42 µM (inactive)

Q: With `Fc1ccc(-c2cc(C(F)(F)F)nc(NCc3cccs3)n2)cc1` as the molecule, how does the AC50 read?
A: > 42 µM (inactive)

Q: Which AC50 does the source give for `COc1ccc(C)cc1NC(=S)N1CCN(c2ccccn2)CC1` here?
A: > 42 µM (inactive)

Q: With `CN(C)CC/C=C1\c2ccccc2Sc2ccc(Cl)cc21` as the molecule, how does the AC50 read?
A: > 42 µM (inactive)

Q: `O=C(CCC(=O)Nc1ccc(F)cc1)N/N=C/c1cccs1` was tested. Which AC50 did it give?
A: > 42 µM (inactive)

Q: How did the AC50 turn out when `Cc1cc(C)c2c(Cn3ccnc3)cc(=O)oc2c1` was run?
A: > 42 µM (inactive)

Q: Which AC50 does the source give for `Cc1nnc(NC(=O)c2cccc(S(=O)(=O)N3CCCC3)c2)s1` here?
A: > 42 µM (inactive)

Q: For `Cc1ccc(-c2ccc(/C=N/n3cnnc3)o2)cc1`, which AC50 is on record?
A: > 42 µM (inactive)

Q: With `CCCCOCCCNS(=O)(=O)Cc1ccccc1` as the molecule, how does the AC50 read?
A: > 42 µM (inactive)

Q: How did the AC50 turn out when `CCOC1(OCC)C(c2ccc(Cl)cc2)C(C#N)(C#N)C1(OCC)OCC` (configuration not stated) was run?
A: > 42 µM (inactive)

Q: Which AC50 does the source give for `COc1cc(-c2nnc(SCC#CCO)o2)cc(OC)c1OC` here?
A: > 42 µM (inactive)

Q: How did the AC50 turn out when `Cc1ccc(NS(=O)(=O)c2ccc(NC(=O)C3CCCO3)cc2)cc1` (configuration not stated) was run?
A: > 42 µM (inactive)

Q: With `O=C(C1CCN(S(=O)(=O)N2CCC3(CC2)OCCO3)CC1)N1CCC(Cc2ccccc2)CC1` as the molecule, how does the AC50 read?
A: > 42 µM (inactive)

Q: How did the AC50 turn out when `O=C(O)C1C2CCC(O2)C1C(=O)NCCC1=CCCCC1` (configuration not stated) was run?
A: 13.6 µM

Q: `O=C(CSc1nc(O)cc(=O)n1-c1ccccc1)NC1CCCCC1` was tested. Which AC50 did it give?
A: > 42 µM (inactive)

Q: How did the AC50 turn out when `Cc1ccc(S(=O)(=O)NCC(C)n2cncn2)cc1` (configuration not stated) was run?
A: > 42 µM (inactive)

Q: For `O=C(NNC(=O)C12CC3CC(CC(C3)C1)C2)c1ccccn1`, which AC50 is on record?
A: > 42 µM (inactive)

Q: `CCN(CC)C1CCN(C(=O)c2cc(COc3ccc(-n4cncn4)cc3)on2)C1` (configuration not stated) was tested. Which AC50 did it give?
A: > 42 µM (inactive)

Q: With `CCOCCCNCc1ccc(OCc2ccc(F)cc2)c(OC)c1` as the molecule, how does the AC50 read?
A: > 42 µM (inactive)

Q: Which AC50 does the source give for `CN(c1ccccc1C(=O)N1CCN(Cc2ccc3c(c2)OCO3)CC1)S(C)(=O)=O` here?
A: > 42 µM (inactive)

Q: Which AC50 does the source give for `O=C(OCC(=O)N1CCN(c2ccccc2)CC1)c1nc(Cl)ccc1Cl` here?
A: > 42 µM (inactive)

Q: With `O=C(CSc1ncccc1C(=O)O)NC1CCCCC1` as the molecule, how does the AC50 read?
A: > 42 µM (inactive)

Q: How did the AC50 turn out when `O=C1N=C(N2CCN(c3ccccc3)CC2)SC1Cc1ccccc1` (configuration not stated) was run?
A: > 42 µM (inactive)

Q: For `CCN(CC)S(=O)(=O)c1ccc(N2CCCC2)c(C(=O)OCC(=O)Nc2cc(C)on2)c1`, which AC50 is on record?
A: > 42 µM (inactive)

Q: How did the AC50 turn out when `CC1=CS(=O)(=O)CC1Sc1ncn[nH]1` (configuration not stated) was run?
A: > 42 µM (inactive)

Q: `CCOC(=O)c1ccc(NC(=O)c2c(NC(=O)CCC(=O)O)sc3c2CCCCC3)cc1` was tested. Which AC50 did it give?
A: > 42 µM (inactive)

Q: `CC(C)C(OC(=O)CN1C(=O)COc2ccccc21)C(=O)NC1CCCC1` (configuration not stated) was tested. Which AC50 did it give?
A: > 42 µM (inactive)

Q: `CCOc1ccc2[nH]c(=O)c(CN(Cc3ccco3)C(CC)c3nnnn3Cc3ccccc3)cc2c1` (configuration not stated) was tested. Which AC50 did it give?
A: > 42 µM (inactive)

Q: For `COc1ccc(C2=NN(C(=S)Nc3ccccc3)C(c3ccccc3)C2)cc1` (configuration not stated), which AC50 is on record?
A: > 42 µM (inactive)

Q: `O=C(c1cc(-c2ccc(Cl)cc2)n(-c2ccc(Cl)cc2)n1)N1CCOCC1` was tested. Which AC50 did it give?
A: > 42 µM (inactive)

Q: How did the AC50 turn out when `COC(=O)c1ccc(CSc2nc3ccccc3c(=O)n2CC(C)C)o1` was run?
A: > 42 µM (inactive)

Q: Which AC50 does the source give for `COc1ccc(-n2c(C)cc(C(=O)CN3C(=O)NC4(CCCc5sccc54)C3=O)c2C)cc1` (configuration not stated) here?
A: > 42 µM (inactive)

Q: For `Oc1c(Cl)cc(Cl)c(Cl)c1Cc1c(O)c(Cl)cc(Cl)c1Cl`, which AC50 is on record?
A: > 42 µM (inactive)

Q: With `CCc1cc2c(NCCO)ncnc2s1` as the molecule, how does the AC50 read?
A: > 42 µM (inactive)

Q: How did the AC50 turn out when `CSc1ccc(CN2CCN(S(=O)(=O)Cc3ccccc3)CC2)cc1` was run?
A: > 42 µM (inactive)

Q: How did the AC50 turn out when `COc1ccc(/C=C/C(=O)N2CCC(C(N)=O)CC2)cc1S(=O)(=O)N1CCOCC1` was run?
A: > 42 µM (inactive)

Q: With `COC(=O)/C=C\C(=O)Nc1cccc([N+](=O)[O-])c1` as the molecule, how does the AC50 read?
A: > 42 µM (inactive)

Q: For `CCOc1cc(/C=C2\NC(=O)NC2=O)ccc1OC(C)C(=O)O` (configuration not stated), which AC50 is on record?
A: > 42 µM (inactive)

Q: With `CCCC(=O)Oc1c(S(=O)(=O)c2ccc(C)cc2)c(C)nn1C(C)(C)C` as the molecule, how does the AC50 read?
A: > 42 µM (inactive)

Q: For `COc1ccc(/C=C2\SC(=S)N(CCCC(=O)Nc3cc(C)on3)C2=O)cc1OC`, which AC50 is on record?
A: > 42 µM (inactive)

Q: For `CCOC(=O)c1sc(NC(=O)CSc2n[nH]c(-c3ccccc3)n2)c(C#N)c1C`, which AC50 is on record?
A: > 42 µM (inactive)

Q: `CCOc1ccc(OCC)c(NC(=O)C2COc3ccccc3O2)c1` (configuration not stated) was tested. Which AC50 did it give?
A: > 42 µM (inactive)

Q: How did the AC50 turn out when `CCOC(=O)C1(Cc2cccc(F)c2)CCN(C(=O)c2cnccn2)CC1` was run?
A: > 42 µM (inactive)

Q: For `COc1ccc(CN2CCN(C(=O)c3cc(-c4cccnc4)nc4ccc(Cl)cc34)CC2)c(OC)c1OC`, which AC50 is on record?
A: > 42 µM (inactive)

Q: How did the AC50 turn out when `CCOc1ccc(S(=O)(=O)N2CCN(CC(O)COc3cccc([N+](=O)[O-])c3)CC2)cc1` (configuration not stated) was run?
A: > 42 µM (inactive)

Q: Which AC50 does the source give for `CC(C)C(O)(C(=O)NNc1ccccc1)C(C)C` here?
A: > 42 µM (inactive)

Q: Which AC50 does the source give for `CC(=O)N1c2ccc([N+](=O)[O-])cc2NC(=O)CC1C` (configuration not stated) here?
A: > 42 µM (inactive)

Q: Which AC50 does the source give for `O=C(NCC1CCCO1)C1CC(c2ccc(Cl)c(Cl)c2)=NO1` (configuration not stated) here?
A: > 42 µM (inactive)

Q: Which AC50 does the source give for `COc1cccc(N2CCN(C3CCCC(C)C3)CC2)c1` (configuration not stated) here?
A: > 42 µM (inactive)

Q: Which AC50 does the source give for `COc1cc(NC(=S)N2CCN(C(=O)C3CCCO3)CC2)c(OC)cc1Cl` (configuration not stated) here?
A: > 42 µM (inactive)

Q: How did the AC50 turn out when `CC1(C)CCC(=O)N2CC[C@H]3C[C@H](OC(=O)Nc4ccc(Br)cc4)C[C@@H]1[C@H]32` was run?
A: > 42 µM (inactive)

Q: For `Cc1ccccc1CSc1n[nH]c(NS(=O)(=O)c2ccccc2)n1`, which AC50 is on record?
A: > 21 µM (inactive)

Q: For `Cc1cc(NC(=O)c2ccc(N3C(=O)CCC3=O)cc2)no1`, which AC50 is on record?
A: > 42 µM (inactive)

Q: `CCc1cc2c(=O)c(-c3nc4ccccc4n3C)c(C)oc2c(CN2CCOCC2)c1O` was tested. Which AC50 did it give?
A: 22.7 µM

Q: Which AC50 does the source give for `Cc1nnc(NC(=O)c2ccc(-c3cccc(C(F)(F)F)c3)o2)s1` here?
A: > 42 µM (inactive)

Q: Which AC50 does the source give for `Cc1ccccc1C(=O)/C=C1\NC(=O)CS1` here?
A: > 21 µM (inactive)

Q: `C=CC(=O)NC1CC2CCC1(C)C2(C)C` (configuration not stated) was tested. Which AC50 did it give?
A: > 42 µM (inactive)

Q: How did the AC50 turn out when `COc1ccccc1NC(=O)CSc1nc(O)c(Cc2ccccc2)c(=O)[nH]1` was run?
A: > 42 µM (inactive)

Q: How did the AC50 turn out when `Nc1cc(C(=O)OCC(=O)N2CCOCC2)ccc1Cl` was run?
A: > 42 µM (inactive)

Q: How did the AC50 turn out when `O=C(O)c1cn(Cc2ccccn2)c(=O)c2ccccc12` was run?
A: > 42 µM (inactive)

Q: With `O=C(O)Cc1sc(Nc2ccccc2)nc1-c1cccs1` as the molecule, how does the AC50 read?
A: > 42 µM (inactive)

Q: With `O=C(N/N=C/c1ccccn1)NC12CC3CC(CC(C3)C1)C2` as the molecule, how does the AC50 read?
A: > 42 µM (inactive)

Q: With `COc1ccc(S(=O)(=O)Cc2ccc(C(=O)NCc3cccs3)o2)cc1` as the molecule, how does the AC50 read?
A: > 42 µM (inactive)

Q: With `Cc1ccc(-c2cc(C(=O)O)c3ccccc3n2)s1` as the molecule, how does the AC50 read?
A: > 42 µM (inactive)

Q: How did the AC50 turn out when `COC(=O)c1ccc(SCC(=O)N2CCC(C)CC2)c([N+](=O)[O-])c1` was run?
A: > 42 µM (inactive)

Q: Which AC50 does the source give for `CN(C)c1ccc(NS(=O)(=O)c2cccc(Cl)c2)cc1` here?
A: > 42 µM (inactive)

Q: `CC(CN1CCCCCC1)C(=O)NN` (configuration not stated) was tested. Which AC50 did it give?
A: > 42 µM (inactive)
